This is an account of results in ChEMBL document CHEMBL1275444, “Fitness trade-offs in blaTEM evolution” (2008).

The subject of test [1] is Escherichia coli.
Description: Ratio of Kcat to Km for Escherichia coli Beta-Lactamase TEM-12
The test system of test [2] is Escherichia coli. Nature of the test: Antibacterial activity against Escherichia coli TP1 harboring pBR322 carrying TEM-10 assessed as inhibition of bacterial growth at >64 ug/ml after 18 hrs. Type of test: functional, organism-based.
The test system of test [3] is Escherichia coli. Kind of test: Antibacterial activity against Escherichia coli TP1 harboring pBR322 carrying TEM-12 assessed as inhibition of bacterial growth at <=16 ug/ml after 18 hrs. Type of test: functional, organism-based.

The source made the active and inactive calls. The rule behind the calls is not given here.

`CC1(C)S[C@@H]2[C@H](NC(=O)[C@H](N)c3ccccc3)C(=O)N2[C@H]1C(=O)O`: the kcat/Km in the test on Escherichia coli [1] was 4.2 ×10⁷ /M/s.

With `CC(C)(O/N=C(\C(=O)N[C@@H]1C(=O)N2C(C(=O)[O-])=C(C[n+]3ccccc3)CS[C@H]12)c1csc(N)n1)C(=O)O`, the inhibition entry in the test with Escherichia coli [2] was “Active”. The inhibition entry with Escherichia coli [3] was “inactive”.
